# Earlier results as cited in US9005587B2, “Anti-bacterial and mineralizing calcium phosphate compositions” (New York University, priority 2011, dated 2015).
# System: bacteria
# Settings: in vitro; Rolla et al. 1975
smiles,measurement,value
"F [F−, fluoride]",F− in solution needed to inhibit adsorption of bacteria on hydroxyapatite,"approximately 9,500 ppm"
